Results from ChEMBL document CHEMBL3739294, “Hydroxylated Daphniphyllum Alkaloids from Daphniphyllum himalense” (J Nat Prod, 2015).

What was measured:
[1] = molecular target: T1, Protein deacetylase HDAC6 (Homo sapiens) (UniProt Q9UBN7); experiment: Inhibition of full-length recombinant human HDAC6 expressed in insect High5 cells using Boc-Lys(-acetyl)-AMC as substrate incubated for 3 hrs; parameters: concentration or dose not given beside the values; settings: concentration not given here
T1 sequence (whole entry): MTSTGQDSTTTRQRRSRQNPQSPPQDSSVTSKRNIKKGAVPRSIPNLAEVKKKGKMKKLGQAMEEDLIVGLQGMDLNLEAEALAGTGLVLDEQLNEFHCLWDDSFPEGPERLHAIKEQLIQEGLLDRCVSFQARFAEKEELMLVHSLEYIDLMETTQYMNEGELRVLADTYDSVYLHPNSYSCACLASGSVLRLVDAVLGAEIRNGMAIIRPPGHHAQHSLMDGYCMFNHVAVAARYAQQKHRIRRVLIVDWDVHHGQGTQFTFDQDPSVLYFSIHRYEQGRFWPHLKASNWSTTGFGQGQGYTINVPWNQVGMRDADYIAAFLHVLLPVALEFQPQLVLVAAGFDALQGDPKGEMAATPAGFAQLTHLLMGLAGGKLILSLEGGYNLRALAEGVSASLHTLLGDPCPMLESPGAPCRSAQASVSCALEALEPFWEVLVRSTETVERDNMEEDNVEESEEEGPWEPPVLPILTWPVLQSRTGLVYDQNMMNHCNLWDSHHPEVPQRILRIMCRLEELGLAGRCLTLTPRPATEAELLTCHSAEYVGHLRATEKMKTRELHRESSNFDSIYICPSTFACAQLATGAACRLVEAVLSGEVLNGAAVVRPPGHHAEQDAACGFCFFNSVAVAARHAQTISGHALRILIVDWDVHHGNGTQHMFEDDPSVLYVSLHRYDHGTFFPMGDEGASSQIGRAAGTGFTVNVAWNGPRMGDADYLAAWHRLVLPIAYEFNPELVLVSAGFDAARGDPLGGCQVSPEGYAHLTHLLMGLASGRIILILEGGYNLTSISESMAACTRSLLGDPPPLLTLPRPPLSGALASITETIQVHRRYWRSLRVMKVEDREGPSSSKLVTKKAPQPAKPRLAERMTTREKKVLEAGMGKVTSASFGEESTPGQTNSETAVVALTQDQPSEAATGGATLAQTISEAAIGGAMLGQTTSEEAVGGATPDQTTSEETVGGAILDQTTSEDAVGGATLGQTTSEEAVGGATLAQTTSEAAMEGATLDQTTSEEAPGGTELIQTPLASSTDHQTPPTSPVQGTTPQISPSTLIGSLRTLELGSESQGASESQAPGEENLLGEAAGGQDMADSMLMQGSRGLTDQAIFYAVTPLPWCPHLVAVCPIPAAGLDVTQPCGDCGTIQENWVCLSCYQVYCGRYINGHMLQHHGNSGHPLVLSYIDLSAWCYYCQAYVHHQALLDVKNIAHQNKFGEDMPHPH

[2] = molecular target: T2, Aurora kinase A (Homo sapiens) (UniProt O14965); experiment: Inhibition of aurora kinase A (unknown origin) incubated for 60 mins by fluorescence analysis
T2 sequence (whole entry): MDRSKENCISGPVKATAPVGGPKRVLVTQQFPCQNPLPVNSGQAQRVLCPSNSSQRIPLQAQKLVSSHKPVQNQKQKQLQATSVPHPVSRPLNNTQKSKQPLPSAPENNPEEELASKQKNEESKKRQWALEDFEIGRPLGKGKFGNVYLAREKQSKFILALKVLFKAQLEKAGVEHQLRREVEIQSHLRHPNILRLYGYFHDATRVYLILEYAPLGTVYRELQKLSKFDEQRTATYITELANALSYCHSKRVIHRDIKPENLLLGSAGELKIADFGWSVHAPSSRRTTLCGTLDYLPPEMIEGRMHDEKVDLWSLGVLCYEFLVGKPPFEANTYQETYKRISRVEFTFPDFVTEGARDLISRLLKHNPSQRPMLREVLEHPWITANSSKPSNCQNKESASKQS

[3] = molecular target: T3, Tyrosine-protein phosphatase non-receptor type 1 (Homo sapiens) (UniProt P18031); experiment: Inhibition of PTP1B (unknown origin) using pNPP as substrate at 20 ug/ml measured for 3 mins by colorimetric assay
T3 sequence (whole entry): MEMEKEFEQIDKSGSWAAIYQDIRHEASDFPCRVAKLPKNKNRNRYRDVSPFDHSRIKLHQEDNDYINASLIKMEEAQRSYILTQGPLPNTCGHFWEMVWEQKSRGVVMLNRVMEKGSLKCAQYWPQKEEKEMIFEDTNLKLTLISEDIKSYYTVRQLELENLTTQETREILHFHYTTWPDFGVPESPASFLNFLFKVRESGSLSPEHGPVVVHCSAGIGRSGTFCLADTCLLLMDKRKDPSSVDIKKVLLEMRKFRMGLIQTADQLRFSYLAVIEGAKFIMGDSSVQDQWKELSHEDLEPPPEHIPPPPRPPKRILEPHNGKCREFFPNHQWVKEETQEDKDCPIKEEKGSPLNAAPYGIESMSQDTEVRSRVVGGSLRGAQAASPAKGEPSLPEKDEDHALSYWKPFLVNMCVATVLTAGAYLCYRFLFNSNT

[4] = molecular target: Tyrosine-protein phosphatase non-receptor type 1, PTP1B (Homo sapiens) (UniProt P18031); experiment: Inhibition of human PTP1B protein expressed in insect High5 cells by Z-LYTE kinase assay; settings: concentration not given here

C[C@@H]1CN2C[C@H]3CC[C@H](O)[C@@H]4C5=C(C[C@@]46C(=O)[C@H]1C[C@@H]2[C@@]36C)C(=O)OCC5
inhibition [1]: < 10%

COC(=O)C1=C2CCC3=C2[C@@]2(C1)C(=O)[C@H]1C[C@@]4(O)N(C[C@@H](CC3)[C@@]24C)C[C@H]1C
inhibition [2]: > 30%
inhibition [1]: < 10%

COC(=O)C1=C2C[C@H](O)C3=C2[C@@]2(C1)C(=O)[C@H]1C[C@H]4N(C[C@@H](CC3)[C@]42C)C[C@H]1C
inhibition [3]: 40%
inhibition [1]: < 10%

C[C@@H]1CN2C[C@H]3CC[C@]4(O)C[C@H](O)C5=C4[C@@]4(CC5)C(=O)[C@H]1C[C@@H]2[C@@]34C
inhibition [1]: < 10%

C[C@@H]1CN2C[C@H]3CC[C@@H]4C(=O)C=C5CC[C@@]6(C(=O)[C@H]1C[C@@H]2[C@@]36C)[C@@]54O
inhibition [3]: 40%
inhibition [1]: < 10%
inhibition [4]: 44%

COC(=O)[C@@H]1C[C@@]23C(=O)[C@H]4C[C@H]5N(C[C@@H](CCC6=C2[C@@H]1C[C@H]6O)[C@]53C)C[C@H]4C
inhibition [1]: < 10%

C[C@@H]1CN2C[C@H]3CC[C@H](O)[C@@H]4C(CCO)=C(C(=O)O)C[C@@]45C(=O)[C@H]1C[C@@H]2[C@@]35C
inhibition [1]: < 10%

COC(=O)[C@@H]1C[C@@]23C(=O)[C@H]4C[C@H]5N(C[C@@H](C[C@@H](O)C6=C2[C@@H]1CC6)[C@]53C)C[C@H]4C
inhibition [1]: < 10%

COC(=O)[C@@H]1C[C@@]23C(=O)[C@H]4C[C@H]5N(C[C@H]4C)C[C@@H]([C@@H](O)CC4=C2[C@@H]1CC4)[C@]53C
inhibition [1]: < 10%

C[C@@H]1CN2C[C@H]3CCC4=C5C(=CC[C@@]56C(=O)[C@H]1C[C@@H]2[C@@]36C)[C@@H](O)C4
inhibition [1]: < 10%

COC(=O)[C@@H]1C[C@@]23C(=O)[C@H]4C[C@H]5N(C[C@@H](C[C@H](O)C6=C2[C@@H]1CC6)[C@]53C)C[C@H]4C
inhibition [1]: < 10%

COC(=O)[C@@H]1C[C@@]23C(=O)[C@H]4[C@H](O)[C@H]5N(C[C@@H](CCC6=C2[C@@H]1CC6)[C@]53C)C[C@H]4C
inhibition [1]: < 10%

COC(=O)[C@@H]1C[C@@]23C(=O)[C@H]4C[C@H]5N(C[C@H]4C)C[C@@H]([C@H](O)CC4=C2[C@@H]1CC4)[C@]53C
inhibition [1]: < 10%
